# Test results published in article PMC7465040, “Cytotoxic and Anti-Plasmodial Activities of Stephania dielsiana Y.C. Wu Extracts and the Isolated Compounds” (Molecules, 2020).
# Read-outs that look alike come from different tables or passages of the source.
# How the values were obtained:
# [1] = system: HeLa; assay: SRB cell proliferation assay, HeLa; assay type: cell-based, human; conditions: for IC50: Homo sapiens, HeLa, 72 h, Table 2A, SRB, read-out: IC50 (μM ± SD) HeLa; for Selectivity index (SI) 184B5 versus HeLa / Selectivity index (SI) MCF10A versus HeLa: Table 2B; for Selectivity index (SI) 184B5 versus HeLa: non-cancer 184B5 vs cancer HeLa; for Selectivity index (SI) MCF10A versus HeLa: non-cancer MCF10A vs cancer HeLa
# Protocol: (§1) In vitro anticancer study: The in vitro anti-proliferative tests were carried out as described previously, using aliquots of the cell lines used therein. Briefly, HeLa, MDA-MB-231 and MDA-MB-468, MCF7, and 184B5 and MCF 10A cell lines were purchased from ATCC. The identity of the cell lines presented in this study were verified by short tandem repeat profiling by Genetica DNA Laboratories (www.celllineauthentication.com) (April 8, 2015). MCF10A was grown in DMEM F12 medium supplemented with 0.02 μg/mL epidermal growth factor, 10% FBS, 10 μg/mL insulin and […] hydrocortisone. MDA-MB-468 were grown in DMEM supplemented with 10% FBS and antibiotics cocktail (100 μg/mL streptomycin, 100 units/mL penicillin and 250 ng/mL amphotericin B). SRB cell proliferation assays were carried out as previously described, with some minor modifications. The concentration range for all tested cell lines were from 100–0.39 μg/mL for extracts and 100–0.39 μM for pure compounds. […] All experiments were carried out at least twice.
# [2] = system: MDA-MB-231; assay: SRB cell proliferation assay, MDA-MB-231; assay type: cell-based, human; conditions: for IC50: Homo sapiens, MDA-MB-231, Table 2A, SRB, 72 h, read-out: IC50 (μM ± SD) MDA-MB-231; for Selectivity index (SI) 184B5 versus MDA-MB-231 / Selectivity index (SI) MCF10A versus MDA-MB-231: Table 2B; for Selectivity index (SI) 184B5 versus MDA-MB-231: non-cancer 184B5 vs cancer MDA-MB-231; for Selectivity index (SI) MCF10A versus MDA-MB-231: non-cancer MCF10A vs cancer MDA-MB-231
# Protocol: as §1
# [3] = system: MDA-MB-468; assay: SRB cell proliferation assay, MDA-MB-468; assay type: cell-based, human; conditions: for IC50: Homo sapiens, MDA-MB-468, Table 2A, SRB, 72 h, read-out: IC50 (μM ± SD) MDA-MB-468; for Selectivity index (SI) 184B5 versus MDA-MB-468 / Selectivity index (SI) MCF10A versus MDA-MB-468: Table 2B; for Selectivity index (SI) 184B5 versus MDA-MB-468: non-cancer 184B5 vs cancer MDA-MB-468; for Selectivity index (SI) MCF10A versus MDA-MB-468: non-cancer MCF10A vs cancer MDA-MB-468
# Protocol: as §1
# [4] = system: MCF7; assay: SRB cell proliferation assay, MCF7; assay type: cell-based, human; conditions: for IC50: Homo sapiens, MCF7, Table 2A, SRB, 72 h, read-out: IC50 (μM ± SD) MCF7; for Selectivity index (SI) 184B5 versus MCF7 / Selectivity index (SI) MCF10A versus MCF7: Table 2B; for Selectivity index (SI) 184B5 versus MCF7: non-cancer 184B5 vs cancer MCF7; for Selectivity index (SI) MCF10A versus MCF7: non-cancer MCF10A vs cancer MCF7
# Protocol: as §1
# [5] = system: 184B5; assay: SRB cell proliferation assay, 184B5 non-cancer cells; assay type: cell-based, human; conditions: Homo sapiens, 184B5, read-out: IC50 (μM ± SD) 184B5
# Protocol: as §1
# [6] = system: MCF 10A; assay: SRB cell proliferation assay, MCF10A non-cancer cells; assay type: cell-based; conditions: Homo sapiens, read-out: IC50 (μM ± SD) MCF 10A
# Protocol: as §1
# [7] = system: chloroquine-susceptible 3D7 P. falciparum strain; assay: In vitro anti-plasmodial assay (HRP2 ELISA), 3D7; assay type: cell-based, Plasmodium falciparum; conditions: for IC50: 72 h, HRP2 ELISA, mean of five experiments, read-out: IC50 (μM ± SD) 3D7; for SI 3D7 184B5 / SI 3D7 MCF10A: Table 3; for SI 3D7 184B5: selectivity index between 184B5 and parasites 3D7; for SI 3D7 MCF10A: selectivity index between MCF10A and parasites 3D7; for Selective index SI on 3D7 strain: vs 184B5 and MCF10A
# Protocol: (§2) Parasites were grown in A-positive human blood (Etablissement Français du Sang, Marseille, France) under controlled atmospheric conditions that consisted of 10% O2, 5% CO2, and 85% N2 at 37 °C with a humidity of 95%.
# (§3) In vitro anti-plasmodial assay: The two P. falciparum strains 3D7 and W2 were synchronized twice with sorbitol before use. The clonality of these strains was verified both in our laboratory and in an independent laboratory from the Worldwide Anti-malarial Resistance Network (WWARN) by PCR genotyping of the polymorphic genetic markers msp1 and msp2 and microsatellite loci. The compounds were re-suspended in methanol or DMSO 5% (v/v) and then diluted in methanol to obtain final concentrations ranging from 0.008 to 500 μg/mL (final concentration of 0.5% of methanol or DMSO). […] The plates were incubated for 72 h at 37 °C in controlled atmospheric conditions 5% CO2, 10% O2, and […]. After thawing the plates, haemolysed cultures were homogenized by vortexing the plates. Both the success of the drug susceptibility assay and the appropriate volume of haemolysed culture to use for each assay were determined for each clinical isolate during a preliminary HRP2 ELISA. Both the pre-test and subsequent ELISA assays were performed using a commercial kit (Malaria Ag Celisa, ref KM2159, Cellabs PTY LTD, Brookvale, Australia) according to the manufacturer’s recommendation. The optical density (OD) of each sample was measured with a spectrophotometer (Safire 2, Tecan, Lyon, France). […] The anti-plasmodial in vitro assay was performed five times for each product. The IC50 values represented the mean value calculated from five experiments. According to Hout, a selectivity index (SI) was based on the ratio between anti-parasitic and cytotoxic activities. In the case of our study, a SI was calculated between non-tumorigenic cell line 184B5 and parasites 3D7 or W2 and/or MCF10A and these two parasites.
# [8] = system: chloroquine-resistant W2 P. falciparum strain; assay: In vitro anti-plasmodial assay (HRP2 ELISA), W2; assay type: cell-based, Plasmodium falciparum; conditions: for IC50: 72 h, HRP2 ELISA, mean of five experiments, read-out: IC50 (μM ± SD) W2; for SI W2 184B5 / SI W2 MCF10A: Table 3; for SI W2 184B5: selectivity index between 184B5 and parasites W2; for SI W2 MCF10A: selectivity index between MCF10A and parasites W2
# Protocol: as §2, §3
# [9] = system: HeLa, MDA-MB231, MDA-MB-468, MCF7, 184B5 and MCF10A cell lines; assay: SRB cell proliferation assay, whole panel of cell lines; assay type: cell-based, human; conditions: for IC50: Homo sapiens, cancer and non-cancer cell lines, read-out: IC50 values, range over the cell lines examined
# Protocol: as §1
# [10] = system: Plasmodium falciparum 3D7 and W2 strains; assay: In vitro anti-plasmodial assay, both strains; assay type: cell-based
# Protocol: as §2, §3
# [11] = Plasmodium falciparum, 3D7, 72 h
# [12] = Plasmodium falciparum, W2, 72 h
Compound,IC50 [1],Selectivity index (SI) 184B5 versus HeLa [1],Selectivity index (SI) MCF10A versus HeLa [1],IC50 [2],Selectivity index (SI) 184B5 versus MDA-MB-231 [2],Selectivity index (SI) MCF10A versus MDA-MB-231 [2],IC50 [3],Selectivity index (SI) 184B5 versus MDA-MB-468 [3],IC50 [4],"IC50 ([5]; Table 2A, SRB, 72 h)","IC50 ([5]; Table 3, non-cancer cell line)","IC50 ([6]; Table 2A, SRB, 72 h)","IC50 ([6]; Table 3, non-cancer cell line)","IC50 [7, 11]",SI 3D7 184B5 [7],SI 3D7 MCF10A [7],"IC50 [8, 12]",SI W2 184B5 [8],SI W2 MCF10A [8],Anti-plasmodial activity against both 3D7 and W2 (in words) [10],other results
"COc1ccc2c(c1OC)-c1c3c(cc4c1C(C2)N(C)CC4)OCO3 (centres unmarked) [O-methylbulbocapine 5, O-methylbulbocapnine]",70.4 ± 11.4 µM,1.04,0.85,56.6 ± 9.08 µM,1.29,1.05,48.1 ± 1.69 µM,1.52,39.4 ± 6.2 µM,73.26 ± 0.47 µM,73.26 ± 0.47 µM,59.5 ± 1.9 µM,59.5 ± 1.9 µM,2.81 ± 0.4 µM,26.07,21.16,5.71 ± 0.62 µM,12.83,10.42,strong activity,Selectivity index (SI) MCF10A versus MDA-MB-468 [3]: 1.24; Selectivity index (SI) 184B5 versus MCF7 [4]: 1.86; Selectivity index (SI) MCF10A versus MCF7 [4]: 1.51; Selective index SI on 3D7 strain [7]: > 20; IC50 [9]: 39 to 73 µM
"COc1cc2c(cc1OC)-c1cc3ccc(OC)c(OC)c3c[n+]1CC2 [Palmatine chloride 6, palmatine]",> 100 µM,,,> 50 µM,,,> 50 µM,,> 50 µM,> 50 µM,> 50 µM,> 50 µM,> 50 µM,1.25 ± 0.28 µM,,,3.19 ± 0.64 µM,>15.67,>15.67,strong activity,Selective index SI on 3D7 strain [7]: > 20; Anti-proliferative activity (in words) [9]: did not show any effect
"COc1cc2c(cc1OC)[C@@H]1Cc3ccc(OC)c(OC)c3CN1CC2 [Tetrahydropalmatine 7, tetrahydropalmatine]",> 50 µM,,,> 50 µM,,,> 50 µM,,> 50 µM,> 50 µM,> 50 µM,> 50 µM,> 50 µM,,>0.18,>0.18,216 to 226 µM,>0.22,>0.22,not active,IC50 [7]: 276 ± 14.4 µM; IC50 [8]: 226 ± 19.8 µM; Anti-proliferative activity (in words) [9]: did not show any effect
"COc1cccc2c1C(=O)c1c3c-2c2c(cc3cc[n+]1C)OCO2 [Thailandine 2, thailandine]",4.1 ± 0.4 µM,0.73,1.20,7.11 ± 0.07 µM,0.42,0.70,0.78 ± 0.12 µM,3.90,1.99 ± 1.36 µM,3.02 ± 0.1 µM,3.02 ± 0.1 µM,5.01 ± 0.15 µM,5.01 ± 0.15 µM,0.22 µM,12.58,20.86,0.24 µM,13.73,22.77,strong activity,"Selectivity index (SI) MCF10A versus MDA-MB-468 [3]: 6.40; Selectivity index (SI) 184B5 versus MCF7 [4]: 1.50; Selectivity index (SI) MCF10A versus MCF7 [4]: 2.50; SI against P. falciparum (3D7 vs. 184B5) [7]: 12.6 fold; IC50 [7]: 0.24 ± 0.04 µM; SI against P. falciparum (W2 vs. MCF10A) [8]: 22.8 fold; IC50 [8]: 0.22 ± 0.02 µM; IC50 [9]: 0.78 to 7.11 µM; Selectivity index (SI) between cells and parasites ([10]; 184B5, MCF10A vs 3D7, W2): > 12"
